{"source": "patent US8329904B2", "about": "“Azacyclic derivatives” (Hoffmann-La Roche Inc., priority 2009, dated 2012)"}
{"target": "T1, human HSL (Homo sapiens, UniProt Q05469)", "T1 construct": "overlapping PCR to generate a full length human HSL ORF with a 3′-His6 tag; His6 (C); made in house; host or cells: High 5 insect cells (baculovirus, pFast-BAC)", "T1 sequence (Q05469 1-1076)": "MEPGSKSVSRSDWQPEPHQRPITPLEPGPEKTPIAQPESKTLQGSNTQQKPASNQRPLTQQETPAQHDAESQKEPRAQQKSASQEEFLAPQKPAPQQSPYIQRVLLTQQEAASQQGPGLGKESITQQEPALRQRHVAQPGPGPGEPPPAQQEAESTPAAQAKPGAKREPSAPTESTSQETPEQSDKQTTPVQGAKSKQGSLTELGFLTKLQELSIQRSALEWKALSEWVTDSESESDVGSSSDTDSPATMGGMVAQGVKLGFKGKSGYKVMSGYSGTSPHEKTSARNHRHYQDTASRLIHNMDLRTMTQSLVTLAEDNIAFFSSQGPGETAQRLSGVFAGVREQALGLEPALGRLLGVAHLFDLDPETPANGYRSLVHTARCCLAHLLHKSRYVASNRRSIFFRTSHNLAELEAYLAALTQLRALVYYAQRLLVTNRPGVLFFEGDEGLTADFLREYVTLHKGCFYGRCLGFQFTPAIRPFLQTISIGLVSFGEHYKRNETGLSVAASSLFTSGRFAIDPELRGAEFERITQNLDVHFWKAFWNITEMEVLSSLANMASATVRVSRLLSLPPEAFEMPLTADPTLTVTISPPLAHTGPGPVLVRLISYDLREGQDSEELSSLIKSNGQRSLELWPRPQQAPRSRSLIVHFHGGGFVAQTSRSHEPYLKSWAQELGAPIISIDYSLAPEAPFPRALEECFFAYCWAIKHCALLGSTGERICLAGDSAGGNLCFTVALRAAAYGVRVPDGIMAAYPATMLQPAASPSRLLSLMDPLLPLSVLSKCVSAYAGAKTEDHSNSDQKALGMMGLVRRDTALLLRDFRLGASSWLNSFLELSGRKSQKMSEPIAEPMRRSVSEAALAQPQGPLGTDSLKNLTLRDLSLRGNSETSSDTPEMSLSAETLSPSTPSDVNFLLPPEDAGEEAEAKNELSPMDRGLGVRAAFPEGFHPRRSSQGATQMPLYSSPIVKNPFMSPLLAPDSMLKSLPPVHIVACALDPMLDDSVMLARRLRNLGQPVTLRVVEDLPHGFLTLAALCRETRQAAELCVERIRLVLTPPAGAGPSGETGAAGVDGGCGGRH", "test": "Human Hormone-Sensitive Lipase (HSL) Enzyme Inhibition Assay", "assay_type": "biochemical", "conditions": "colorimetric assay, 2,3-dimercapto-1-propanol tributyrate (DMPT) substrate, 37° C. for 20 minutes, absorbance at 405 nm; read-out: HSL hum IC50", "experimental": "Production of Human Full Length Hormone Sensitive Lipase-His^6\n1) Cloning: cDNA was prepared from commercial human brain polyA-+ RNA and used as a template in overlapping PCR to generate a full length human HSL ORF with a 3′-His6 tag. This full length insert was cloned into the pFast-BAC vector and the DNA-sequence of several single clones was verified. DNA from a correct full length clone with the 3′His6 tag was used to transform the E. coli strain DH10BAC. Resulting bacmid DNA was used to generate a titered baculovirus stock for protein generation.\nCells were thawed. […] was done at 3×30 sec., Lubrol PX was added to 0.2% final concentration followed by stirring for 15 min. at 4° C. and centrifugation at 25 k×g, 60 min., 4° C. […] Supernatant was removed, the resin washed in the centrifuge vessel using 5 volumes of Base Buffer containing 0.2% Lubrol PX. Centrifugation was done again, then the supernatant discarded. The resin wass poured onto a 0.8 μm membrane in a disposable filter unit (Nalge 450-0080), and washed with 5 volumes of Base Buffer containing 0.2% Lubrol PX. It was then washed with 30 volumes of Base Buffer containing 60 mM imidazole pH 7.5 at 4° C. The protein was eluated with 5 volumes of 25 mM Tris-Cl, 300 mM NaCl, 200 mM imidazole, 10 mM 2-mercaptoethanol, pH 7.5 at 4° C. by tumbling resin with buffer end-over-end, 30 min., 4° C. The resin was captured on a 0.2 μm membrane disposable filter unit (Millipore SCGP U02 RE) and the eluate collected in the reservoir. The eluate was concentrated using a 30 k MWCO centrifugal filter device (Sartorius Vivascience Vivacell 100, VC1022), to 20 ml. It was then dialyzed overnight at 4° C., two times against 2 L of 10% glycerol, 25 mM Tris-Cl, 300 mM NaCl, 0.2 mM EDTA, 0.2 mM DTT, pH 7.5 at 4° C. The protein was filtered using a 0.22 μm disposable filter unit (Millipore SCGP00525). The protein concentration was calculated from absorbance at 280 nm, using 280=0.67 cm-1 mg-1. […] The protein was stored at −80° C.\nHuman Hormone-Sensitive Lipase (HSL) Enzyme Inhibition Assay:\nHSL enzyme activity was measured by a colorimetric assay using 2,3-dimercapto-1-propanol tributyrate (Aldrich, St. Louis, Mo.) as a substrate. Typically, 1.5 mM 2,3-dimercapto-1-propanol tributyrate (DMPT) in 100 mM MOPS, pH 7.2, 0.2 mg/ml fatty acid-free BSA was prepared by sonication at 4° C. to homogenous suspension. Test compounds (2 mM stock in DMSO) were diluted 3 fold in series in DMSO. Compound solutions were diluted 24 fold in 1.5 mM DMPT containing solution and 18 ul per well was added to 384-well microplates (Corning Costar). Twelve microliters per well of human HSL (15 ug/ml) was added and the reaction mixture was incubated at 37° C. for 20 minutes. Six microliters of 12 mM dithio-bis-(2-nitrobenzoic acid) (DTNB) in DMSO plus 1.2% SDS and 0.6% Triton X-100 were added and the mixture was incubated at room temperature for 15 minutes. Product production was monitored by reading absorbance at 405 nm on an Envision Reader (PerkinElmer Life and Analytical Sciences, Shelton, Conn.).", "units": {"IC50": "nM"}}
{"compound": "CC(Oc1ccc(N2CCC3(CCN(S(=O)(=O)c4ccccc4)CC3)C2=O)cc1)C(F)(F)F", "note": "(racemic) [Example 4, (rac)-8-Benzenesulfonyl-2-[4-(2,2,2-trifluoro-1-methyl-ethoxy)-phenyl]-2,8-diaza-piro[4.5]decan-1-one]", "IC50": 20}
{"compound": "CC(Oc1ccc(N2CCC3(CCN(S(=O)(=O)CC(C)(C)C)CC3)C2=O)cc1)C(F)(F)F", "note": "(racemic) [Example 22, (rac)-8-(2,2-Dimethyl-propane-1-sulfonyl)-2-[4-(2,2,2-trifluoro-1-methyl-ethoxy)-phenyl]-2,8-diaza-spiro[4.5]decan-1-one]", "IC50": 130}
{"compound": "CC(Oc1ccc(N2CCC3(CCN(S(=O)(=O)c4ccccc4)CC3)C2=O)cn1)C(F)(F)F", "note": "(racemic) [Example 25, (rac)-8-Benzenesulfonyl-2-[6-(2,2,2-trifluoro-1-methyl-ethoxy)-pyridin-3-yl]-2,8-diaza-spiro[4.5]decan-1-one]", "IC50": 50}
{"compound": "CC(Oc1ccc(N2CCC3(CCN(S(=O)(=O)c4ccccc4Cl)CC3)C2=O)cn1)C(F)(F)F", "note": "(racemic) [Example 114, 8-(2-Chloro-benzenesulfonyl)-2-[6-(2,2,2-trifluoro-1-methyl-ethoxy)-pyridin-3-yl]-2,8-diaza-spiro[4.5]decan-1-one (rac)]", "IC50": 50}
{"compound": "Cc1noc(C)c1S(=O)(=O)N1CCC2(CCN(c3ccc(C(O)C(F)(F)F)cc3)C2=O)CC1", "note": "(racemic) [Example 162, (rac)-8-(3,5-Dimethyl-isoxazole-4-sulfonyl)-2-[4-(2,2,2-trifluoro-1-hydroxy-ethyl)-phenyl]-2,8-diaza-spiro[4.5]decan-1-one]", "IC50": 120}
{"compound": "O=C1N(c2ccc(C(O)C(F)F)cc2)CCC12CCN(S(=O)(=O)c1ccccc1C(F)(F)F)CC2", "note": "(racemic) [Example 176, (rac)-2-(4-(2,2-difluoro-1-hydroxyethyl)phenyl)-8-(2-(trifluoromethyl)phenylsulfonyl)-2,8-diazaspiro[4.5]decan-1-one]", "IC50": 40}
{"compound": "O=C1N(c2ccc(OC(F)(F)F)cc2)CCC12CCN(S(=O)(=O)c1ccccc1Cl)CC2", "note": "[Example 1, 8-(2-Chloro-benzenesulfonyl)-2-(4-trifluoromethoxy-phenyl)-2,8-diaza-spiro[4.5]decan-1-one]", "IC50": 30}
{"compound": "O=C1N(c2ccc(OC(F)(F)F)cc2)CCC12CCN(S(=O)(=O)c1ccccc1)CC2", "note": "[Example 2, 8-Benzenesulfonyl-2-(4-trifluoromethoxy-phenyl)-2,8-diaza-spiro[4.5]decan-1-one]", "IC50": 40}
{"compound": "CC(C)(C)c1ccc(N2CCC3(CCN(S(=O)(=O)c4ccccc4)CC3)C2=O)cc1", "note": "[Example 3, 8-Benzenesulfonyl-2-(4-tert-butyl-phenyl)-2,8-diaza-spiro[4.5]decan-1-one]", "IC50": 30}
{"compound": "CC(C)(Oc1ccc(N2CCC3(CCN(S(=O)(=O)c4ccccc4)CC3)C2=O)cc1)C(F)(F)F", "note": "[Example 5, 8-Benzenesulfonyl-2-[4-(2,2,2-trifluoro-1,1-dimethyl-ethoxy)-phenyl]-2,8-diaza-spiro[4.5]decan-1-one]", "IC50": 40}
{"compound": "CC(C)Oc1ccc(N2CCC3(CCN(S(=O)(=O)c4ccccc4)CC3)C2=O)cc1", "note": "[Example 6, 8-Benzenesulfonyl-2-(4-isopropoxy-phenyl)-2,8-diaza-spiro[4.5]decan-1-one]", "IC50": 40}
{"compound": "CC(C)(C)CC(=O)N1CCC2(CC1)CCN(c1ccc(OC(F)(F)F)cc1)C2=O", "note": "[Example 7, 8-(3,3-Dimethyl-butyryl)-2-(4-trifluoromethoxy-phenyl)-2,8-diaza-spiro[4.5]decan-1-one]", "IC50": 60}
{"compound": "O=C1N(c2ccc(OC(F)(F)F)cc2)CCC12CCN(S(=O)(=O)N1CCOCC1)CC2", "note": "[Example 8, 8-(Morpholine-4-sulfonyl)-2-(4-trifluoromethoxy-phenyl)-2,8-diaza-spiro[4.5]decan-1-one]", "IC50": 90}
{"compound": "O=C1N(c2ccc(OC(F)(F)F)cc2)CCCC12CCN(S(=O)(=O)c1ccccc1)CC2", "note": "[Example 9, 9-Benzenesulfonyl-2-(4-trifluoromethoxy-phenyl)-2,9-diaza-spiro[5.5]undecan-1-one]", "IC50": 50}
{"compound": "CC(C)c1ccc(N2CCC3(CCN(S(=O)(=O)c4ccccc4)CC3)C2=O)cn1", "note": "[Example 10, 8-Benzenesulfonyl-2-(6-isopropyl-pyridin-3-yl)-2,8-diaza-spiro[4.5]decan-1-one]", "IC50": 130}
{"compound": "O=C1N(c2ccc(Cl)nc2)CCC12CCN(S(=O)(=O)c1ccccc1)CC2", "note": "[Example 11, 8-Benzenesulfonyl-2-(6-chloro-pyridin-3-yl)-2,8-diaza-spiro[4.5]decan-1-one]", "IC50": 1700}
{"compound": "O=C1N(c2cccnc2)CCC12CCN(S(=O)(=O)c1ccccc1)CC2", "note": "[Example 12, 8-Benzenesulfonyl-2-pyridin-3-yl-2,8-diaza-spiro[4.5]decan-1-one]", "IC50": 26000}
{"compound": "O=C(CCC1CC1)N1CCC2(CC1)CCN(c1ccc(OC(F)(F)F)cc1)C2=O", "note": "[Example 13, 8-(3-Cyclopropyl-propionyl)-2-(4-trifluoromethoxy-phenyl)-2,8-diaza-spiro[4.5]decan-1-one]", "IC50": 150}
{"compound": "CC(C)(C)CCC(=O)N1CCC2(CC1)CCN(c1ccc(OC(F)(F)F)cc1)C2=O", "note": "[Example 14, 8-(4,4-Dimethyl-pentanoyl)-2-(4-trifluoromethoxy-phenyl)-2,8-diaza-spiro[4.5]decan-1-one]", "IC50": 170}
{"compound": "CC(C)Oc1ccc(N2CCC3(CCN(S(=O)(=O)N4CCOCC4)CC3)C2=O)cc1", "note": "[Example 15, 2-(4-Isopropoxy-phenyl)-8-(morpholine-4-sulfonyl)-2,8-diaza-spiro[4.5]decan-1-one]", "IC50": 360}
{"compound": "COc1ccc(N2CCC3(CCN(S(=O)(=O)c4ccccc4)CC3)C2=O)nn1", "note": "[Example 16, 8-Benzenesulfonyl-2-(6-methoxy-pyridazin-3-yl)-2,8-diaza-spiro[4.5]decan-1-one]", "IC50": 15000}
{"compound": "CCc1ccc(N2CCC3(CCN(S(=O)(=O)c4ccccc4Cl)CC3)C2=O)cc1", "note": "[Example 17, 8-(2-Chloro-benzenesulfonyl)-2-(4-ethyl-phenyl)-2,8-diaza-spiro[4.5]decan-1-one]", "IC50": 30}
{"compound": "CC(C)CS(=O)(=O)N1CCC2(CCN(c3ccc(OC(F)(F)F)cc3)C2=O)CC1", "note": "[Example 18, 8-(2-Methyl-propane-1-sulfonyl)-2-(4-trifluoromethoxy-phenyl)-2,8-diaza-spiro[4.5]decan-1-one]", "IC50": 80}
